Drawing on a melting point compilation (Tetko et al.; mined from patent text by program, amines drawn as free bases though some values may be those of a salt), this text covers melting point for 63 compounds.

Non-standard residues stand in square brackets, D forms with d. Residues, ends and D or L forms follow the SMILES beside them. ξ: configuration not given here. *: point of attachment. Cbz = O=C(OCc1ccccc1)*; Boc = CC(C)(C)OC(=O)*; Aib = CC(C)(N)C(=O)O; ξDap = NCC(N)C(=O)O

The term melting point denotes the temperature, or range, at which the solid turns liquid. `O=C(CC1(Sc2ccc(Oc3ccc(Cl)cc3)cc2)CCOCC1)NO` gave a melting point of 50 to 55 °C. The figure for `Oc1ccc(-c2nc3ccccc3nc2-c2ccc(O)cc2)cc1` is 336 to 338 °C; for `O=C(Nc1ccccc1NS(=O)(=O)c1ccc(Cl)cc1)c1ccccc1` it is 191 to 192 °C. `CC(=O)Oc1c(C)cc(NC(=O)NC2=C(c3ccccc3)c3ccccc3CS2)cc1C`: the melting point was 206 to 208 °C. The figure for `COc1ccc(-c2csc(CC(=O)O)n2)cc1OC1CC2CCC1C2` (stereo not drawn) is 190 to 191 °C; for `Cc1cccc(-c2nc(NC(=O)c3cccnc3)sc2-c2ccnc(NCc3ccccc3)c2)c1` it is 220 to 222 °C.

Turning to `OC(c1ccc2c(c1)SCCN2)(C(F)(F)F)C(F)(F)F`, the melting point lay within 99 to 100 °C. Compound `CC(OCc1ccc2ccccc2c1)(C(N)=O)C(F)(F)F` (stereo not drawn) displayed a melting point of 111 to 112 °C. Under `N#CCNC(=O)C(=O)Oc1ccc([N+](=O)[O-])cc1` stands 123 to 124 °C; under `COc1ccc(SCc2ccc(F)cc2F)c(Cl)c1Cl`, 86 to 88 °C; under `Fc1ccc2[nH]cc(C3=CCC4(CC3)OCCO4)c2c1`, 153 to 155 °C. The figure for `COc1cccc(Oc2ccc(CCNc3ncnc4nccnc34)cc2)n1` is 152 to 153 °C.

As for `CCC(C)c1c(Cl)nc(NC=O)nc1Cl` (stereo not drawn), the melting point was in the range of 92 to 93 °C. `COC(=O)CC1=C(C)Cc2ccc(F)cc21`: the melting point amounted to 53 °C.

Compound `COCOc1cccc2c(Br)cccc12` gave a melting point of 49 to 50 °C. In turn, `C=Cn1cc(C(=O)O)c(=O)c2cc(F)c(N3CCNCC3)cc21` came in with a melting point of 248 to 251 °C. Regarding `Nc1cccc(S(=O)(=O)NC(=O)c2ccccc2)c1`, the melting point lay in the range of 160 to 162 °C. Regarding `O=C(O)c1cc([N+](=O)[O-])c(-c2ccccc2)c([N+](=O)[O-])c1`, the melting point lay in the range of 219 to 221 °C. Under `CCOC(=O)C=Cc1ccc(O)c(Br)c1` stands 112 to 113 °C. The figure for `Cn1nnc(Cc2ccc3c(c2)c(C2=CCN(CCN4CCNC4=O)CC2)cn3-c2ccc(F)cc2)n1` is 129 to 131 °C; for `O=C1NC[C@@H](C(=O)NCCO[N+](=O)[O-])O1` it is 101 to 103 °C; for `CN(CCN(C)C1=C(O)C(=O)c2ccccc2C1=O)Cc1ccccc1` it is 121 to 123 °C.

`CC(C)(Oc1ccc(OCCOc2cc(C(C)(C)C)c(O)c(C(C)(C)C)c2)cc1)C(=O)O` registered a melting point of 124 °C. The figure for `Cc1cccc(NC(=O)CN2C(=O)c3ccccc3C2=O)c1` is 207 °C; for `CC(=O)Nc1cc([N+](=O)[O-])cc([N+](=O)[O-])c1` it is 189 to 191 °C. The figure for `OCCCc1ccc2ccn(C3CCN(CCc4ccc(F)cc4)CC3)c2c1` is 131 to 133 °C. `COCOc1cc(Cl)ccc1-c1cc(-c2cccc(C(=O)NCCCn3ccnc3)c2)c(C#N)c(NC(=O)c2ccccc2OC)n1` had a melting point of 100 to 101 °C. `CCCCCCCCCCCCNc1ccc(OCC)cc1` came in with a melting point of 38 to 39 °C.

For the compound `O=C(NCCCl)Oc1ccccc1`, the melting point was in the range of 65 to 67 °C. The figure for `O=C1NCc2cccnc2N1c1ccccc1` is 269 to 271 °C; for `COc1ccc(-c2ccc(Cl)cc2C#N)cc1C=O` it is 187 to 189 °C. The figure for `CC1CCCCN1C(=O)c1nc(-c2ccccc2)nc2ccccc12` (stereo not drawn) is 150 °C. Under `Cc1ccc(Oc2ccc(-c3cccs3)cc2O)c(O)c1` stands 91 to 92 °C.

For the compound `CCCC(Cc1ccc(OCCN2CCCCCC2)cc1)(C(=O)O)S(=O)(=O)c1ccc(OC)cc1` (stereo not drawn), the melting point was determined as 55 °C.

Compound `N#CC(C#N)=C1Sc2nc3ccc(C(F)(F)F)cc3nc2S1` came in with a melting point of 197 to 199 °C.

The compound `CCOC(=O)C1=C(C)NC(C)=C(C(=O)OCCN2CCN(C(c3ccccc3)c3ccccc3)CC2)C1c1ccccc1Cl` (stereo not drawn) came in with a melting point of 76 to 78 °C. Under `CC(=O)Nc1ccc(C#CCCN2CC=C(c3ccccc3)CC2)cn1` stands 169 to 170 °C; under `CN1Cc2c(C#CC(O)(C3CC3)C3CC3)ncn2-c2cccc(Cl)c2C1=O`, 179 to 181 °C. The figure for `Cc1ccc(-c2ccc(Cl)cc2Cl)c(=O)[nH]1` is 266 to 268 °C; for `NC(=O)CNC(=O)c1cccc(-c2cccc3sc(Cc4cccc(C(F)(F)F)c4)nc23)c1` it is 130 to 131 °C. Regarding `C=C1CCCCCCCSC[C@@H](C(=O)OCC)NC1=O`, the melting point was in the range of 146 to 147 °C. Compound `CCC1(CC)OC(c2ccc(S(C)(=O)=O)cc2)=C(c2ccccc2)C1=O` returned a melting point of 139 to 140 °C.

With `COC(=O)C(CNC(=O)OC(C)(C)C)NC(=O)C(C)(C)NC(=O)OCc1ccccc1` (stereo not drawn) (Cbz-[Aib]-[ξDap](Boc)-OMe), the melting point fell in the range of 100 to 101 °C. Under `COc1cc(-c2nc(-c3ccc(N(C)C)cc3)c(C)[nH]2)ccc1OP(=O)(O)O` stands 226 to 230 °C; under `CC(C)CNCC(=O)Nc1ccc2c(c1)C(=O)c1cc(NC(=O)CNCC(C)C)ccc1C2=O`, 146 °C; under `O=c1cc(-c2ccccc2F)oc2ccccc12`, 98 to 100 °C. Under `CC1(C)CC(SCc2c(F)cccc2F)=NO1` stands 77 to 80 °C. The figure for `COC1(c2ccc(C#Cc3cc(F)cc(F)c3NC(=O)C(C)(C)C)cc2)CCOCC1` is 77 to 79 °C; for `O=C(c1ccc(F)c(F)c1)N1CCC[C@H](c2nc(-c3ccncc3)no2)C1` it is 102 to 106 °C; for `CC(Nc1nc(N)nc(C(F)(F)F)n1)c1ccc(Cl)cc1` (stereo not drawn) it is 99 °C. As to `Cc1ncoc1C(=O)Nc1ccc(-n2nc(C(F)(F)F)cc2C2CC2)c(F)c1`, the melting point lay in the range of 148 to 150 °C. Under `Cc1sc2c(Br)c3ccccc3c(-c3ccc(O)cc3)c2c1C` stands 165 to 168 °C; under `N#Cc1cc(N)c(N)c(C#N)c1`, 240 to 244 °C; under `COc1cc(C)nc(OC)c1NC(=O)CN1CCN(CCSc2nc3ccccc3o2)CC1`, 113 to 115 °C. Under `COC(=O)/C=C/c1ccc(/C=C/c2csc(NC(C)=O)n2)s1` stands 200 to 202 °C; under `c1ccc(CCOc2c3c(nc4ccccc24)CCN(Cc2ccccc2)CC3)cc1`, less than 20 °C. The figure for `CSc1c(O[C@@H]2CCC[C@H](N3C(=O)c4ccccc4C3=O)C2)ccc2[nH]ncc12` (relative stereo) is 156 to 157 °C; for `CN(C)c1ccc(-c2n[nH]c3c2c(=O)n(-c2ccccc2)c2ncccc32)cc1` it is greater than 300 °C; for `CCCCC(=O)Nc1ccc(C(=O)CCC(=O)O)cc1` it is 153 to 155 °C. As for `CC(C)OCCn1c(C2CCN(CCc3ccc(C(C)(C)C)cc3)CC2)nc2ccccc21`, the melting point lay within 115 to 117 °C. The figure for `CS(=O)(=O)c1c(C(=O)c2cnoc2C2CC2)ccc2c1OC(F)(F)O2` is 162 to 163 °C. The figure for `COc1ccc(Cl)c(Cc2c(Cl)nc(N3CCOCC3)nc2NS(=O)(=O)c2ccc(C(C)(C)C)cc2)c1` is 159 to 162 °C. Under `CC(C)P1(=O)c2ccccc2CN1C` (stereo not drawn) stands 72 to 74 °C.
